Assay results taken from ChEMBL document CHEMBL5512615, “Targeting autophagy drug discovery: Targets, indications and development trends” (Eur J Med Chem, 2024).
Blank lines part the entries; values can stand above or below the molecule they belong to.

Tests used:
[1] = molecular target: GABA-A receptor; anion channel
Description: Inhibition of GABA receptor (unknown origin)

[2] = molecular target: Ubiquitin carboxyl-terminal hydrolase 10 (Homo sapiens, UniProt Q14694); assay: Inhibition of USP10 (unknown origin)
[3] = molecular target: T1, Ubiquitin carboxyl-terminal hydrolase 13 (Homo sapiens, UniProt Q92995)
T1 sequence (Q92995 whole entry): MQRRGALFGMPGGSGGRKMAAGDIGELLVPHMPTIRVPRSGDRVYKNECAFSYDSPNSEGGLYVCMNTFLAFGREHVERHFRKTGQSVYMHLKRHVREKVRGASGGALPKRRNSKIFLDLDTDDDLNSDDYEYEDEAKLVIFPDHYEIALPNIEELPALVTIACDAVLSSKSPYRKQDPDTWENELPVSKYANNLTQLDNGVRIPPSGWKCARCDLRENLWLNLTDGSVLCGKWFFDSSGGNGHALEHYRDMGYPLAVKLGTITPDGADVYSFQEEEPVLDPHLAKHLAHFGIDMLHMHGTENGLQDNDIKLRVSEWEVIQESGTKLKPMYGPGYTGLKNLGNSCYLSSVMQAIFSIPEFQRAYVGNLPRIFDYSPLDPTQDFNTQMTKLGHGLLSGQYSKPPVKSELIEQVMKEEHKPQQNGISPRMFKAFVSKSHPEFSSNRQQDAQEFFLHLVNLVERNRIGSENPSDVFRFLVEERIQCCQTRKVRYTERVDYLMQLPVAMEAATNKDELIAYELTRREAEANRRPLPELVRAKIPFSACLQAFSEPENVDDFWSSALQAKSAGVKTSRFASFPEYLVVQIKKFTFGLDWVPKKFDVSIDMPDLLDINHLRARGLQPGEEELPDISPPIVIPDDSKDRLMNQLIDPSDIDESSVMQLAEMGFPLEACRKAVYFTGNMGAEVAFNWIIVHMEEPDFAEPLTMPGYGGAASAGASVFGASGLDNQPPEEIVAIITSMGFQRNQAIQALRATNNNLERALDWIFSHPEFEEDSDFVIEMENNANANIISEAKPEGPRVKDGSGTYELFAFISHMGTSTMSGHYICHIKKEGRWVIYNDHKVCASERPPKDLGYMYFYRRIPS
Description: Inhibition of USP13 (unknown origin)

Ferritin heavy chain = Ferritin heavy chain (Homo sapiens, UniProt P02794)
Ferritin heavy chain, sequence (P02794 whole entry): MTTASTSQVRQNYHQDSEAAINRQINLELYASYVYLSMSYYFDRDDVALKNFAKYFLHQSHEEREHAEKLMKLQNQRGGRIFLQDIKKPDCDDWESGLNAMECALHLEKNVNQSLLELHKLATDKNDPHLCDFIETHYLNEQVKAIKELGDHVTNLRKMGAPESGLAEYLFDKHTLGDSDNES
Description: Inhibition of FTH1 (unknown origin)

A549 = assay: cells; details: Homo sapiens
Description: Antiproliferative activity against human A549 cells assessed as reduction in cell viability by MTT assay

[4] = molecular target: T2, Patatin-like phospholipase domain-containing protein 2 (Homo sapiens, UniProt Q96AD5)
T2 sequence (Q96AD5 whole entry): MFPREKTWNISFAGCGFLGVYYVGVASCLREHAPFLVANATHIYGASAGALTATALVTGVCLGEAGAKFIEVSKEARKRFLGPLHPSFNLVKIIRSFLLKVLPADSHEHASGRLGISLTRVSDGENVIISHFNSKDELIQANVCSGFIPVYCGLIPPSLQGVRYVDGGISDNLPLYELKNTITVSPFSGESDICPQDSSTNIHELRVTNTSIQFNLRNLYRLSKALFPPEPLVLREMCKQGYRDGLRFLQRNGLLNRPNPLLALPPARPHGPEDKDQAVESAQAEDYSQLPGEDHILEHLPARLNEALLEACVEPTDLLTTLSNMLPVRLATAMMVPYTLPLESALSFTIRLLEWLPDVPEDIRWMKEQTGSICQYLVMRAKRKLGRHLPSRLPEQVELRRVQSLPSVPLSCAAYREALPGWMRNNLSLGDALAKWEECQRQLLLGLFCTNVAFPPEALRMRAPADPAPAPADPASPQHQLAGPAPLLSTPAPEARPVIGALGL
Description: Inhibition of ATGL ubiquitination in human HepG2 cells assessed as inhibition constant

Ubiquitin carboxyl-terminal hydrolase 10, sequence (Q14694 whole entry): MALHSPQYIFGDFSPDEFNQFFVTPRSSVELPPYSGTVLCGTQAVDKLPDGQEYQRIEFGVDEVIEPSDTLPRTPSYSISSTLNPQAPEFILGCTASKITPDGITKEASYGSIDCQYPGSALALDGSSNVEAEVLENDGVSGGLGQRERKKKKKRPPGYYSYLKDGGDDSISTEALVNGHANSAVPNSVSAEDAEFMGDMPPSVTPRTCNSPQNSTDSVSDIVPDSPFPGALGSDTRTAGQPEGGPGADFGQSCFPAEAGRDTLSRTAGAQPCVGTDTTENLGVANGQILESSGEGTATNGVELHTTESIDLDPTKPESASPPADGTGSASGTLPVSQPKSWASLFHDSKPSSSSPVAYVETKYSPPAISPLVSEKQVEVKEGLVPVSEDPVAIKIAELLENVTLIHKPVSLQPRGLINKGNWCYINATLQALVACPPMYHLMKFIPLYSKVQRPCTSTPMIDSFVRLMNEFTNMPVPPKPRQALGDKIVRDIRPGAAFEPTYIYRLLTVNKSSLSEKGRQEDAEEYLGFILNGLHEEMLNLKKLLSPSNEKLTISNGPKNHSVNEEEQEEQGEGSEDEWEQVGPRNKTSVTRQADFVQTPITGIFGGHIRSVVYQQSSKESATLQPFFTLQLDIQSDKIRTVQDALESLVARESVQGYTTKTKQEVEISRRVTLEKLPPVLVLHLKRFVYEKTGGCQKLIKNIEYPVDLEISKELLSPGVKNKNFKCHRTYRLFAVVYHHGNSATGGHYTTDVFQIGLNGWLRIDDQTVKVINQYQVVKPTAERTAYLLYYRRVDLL

IC50 [1]: 5900 nM
SMILES: C[C@H]1[C@H](C)CC[C@]2(C(=O)O)CC[C@]3(C)C(=CC[C@@H]4[C@@]5(C)C[C@@H](O)[C@H](O)[C@@](C)(CO)[C@@H]5CC[C@]43C)[C@H]12 [ASIATIC ACID]

IC50 [2]: 580 nM
IC50 [3]: 690 nM
SMILES: Fc1ccc(CNc2ncnc3ccc(F)cc23)cc1

IC50 (Ferritin heavy chain): 1 nM
SMILES: C=C1CC[C@H]2O[C@]2(C)CC[C@@H]2[C@@H]1CC2(C)C [(-)-CARYOPHYLLENE OXIDE]

EC50 (A549): 3 nM
SMILES: OC[C@H]1O[C@@H](c2ccc(Cl)c(Cc3ccc(O[C@H]4CCOC4)cc3)c2)[C@H](O)[C@@H](O)[C@@H]1O [EMPAGLIFLOZIN]

Ki [4]: 0.017 nM
SMILES: N[C@@H]1CCCN(c2c(/C=C3\SC(=O)NC3=O)cccc2-c2ccccc2)C1
